Experiments:
Type in all cases: in vivo, male Wistar rats
PCNA = test: Western blot of PCNA in livers of DEN-induced HCC rats; conditions: liver, versus HCC; P<0.01 (FIG. 6)
Procedure: (§1) In this study, 4 weeks old male Wistar rats were used. The rats were randomly divided into two groups; Control group (n=8) which received 1× PBS via intraperitoneal (i.p.) injection; Experimental group which were injected with DEN at 50 mg/kg b. wt. (Sigma Aldrich, USA) dissolved in PBS once a week for 16 weeks via i.p. This HCC induction protocol was modified from the protocol described by (DePeralta et al., 2016; Schiffer et al., 2005).
(§2) All drugs were orally administered with intragastric (gavage) tube. Doses and route of administration followed what was been previously reported in the literature.
For the HCC+sorafenib group, sorafenib (Carbosynth Limited) was administered at a dose of 10 mg/kg b.wt. […]
Liver tissue samples (10 mg) were homogenized in cold RIPA buffer (Sigma Aldrich, USA) 2 μl of protease inhibitor and of phosphatases inhibitor were added to the homogenizing buffer (Sigma Aldrich, USA). Protein concentration of each liver sample was determined using the Bradford method (Bio-Rad, Hercules, Calif.) with the Promega GloMax Discover. […] Variations of gel percentages were used according to the size of protein to be determined. […] Protein bands were then detected using a chemiluminescence solution known as WesternSure PREMIUM, the signal was detected and visualized using the Bio-Rad ChemiDoc XRS+ System. The intensity of the band was measured using the ImageJ software. […]

reticulin network = test: Reticulin staining of liver sections in DEN-induced HCC rats; conditions: in comparison to HCC groups (FIG. 5)
Procedure: as §1, §2
(§3) For the HCC+sorafenib group, sorafenib (Carbosynth Limited) was administered at a dose of 10 mg/kg b.wt. […] A 0.3% solution of DMSO was used to dissolve the sorafenib. […] At the end of the experimental period and after a 24-hour post last drug administration, animals were euthanized using Diethyl ether and sacrificed and dissected under controlled conditions. Blood and liver tissue samples were collected and stored either at room temperature in buffered formalin for histological analysis or at −80 C in PBS for biochemical and immunoblotting analyses.

DEN-induced HCC [1] = test: Histopathological evaluation of liver (H&E) in DEN-induced HCC rats; conditions: HCC groups (FIG. 10)
Procedure: as §1, §2, §3

DEN-induced HCC [2] = test: Liver enzymes (ALT, AST) in serum of DEN-induced HCC rats, colorimetric assay
Procedure: as §1, §2, §3

[3] = test system: intrinsic apoptotic pathway; test: Western blot of intrinsic apoptotic pathway proteins (Bax, Bcl-2, PARP, pro-caspase-3, pro-caspase-9) in livers of DEN-induced HCC rats
Procedure: as §1, §2, §3
Liver tissue samples (10 mg) were homogenized in cold RIPA buffer (Sigma Aldrich, USA) 2 μl of protease inhibitor and of phosphatases inhibitor were added to the homogenizing buffer (Sigma Aldrich, USA). Protein concentration of each liver sample was determined using the Bradford method (Bio-Rad, Hercules, Calif.) with the Promega GloMax Discover. In order to blot the proteins into the gel, 2-mercaptoethanol, […], was added to the cell lysate produced from the homogenization of liver tissues. The mixture of the lysate and loading dye was then loaded into the SDS-PAGE gel. Variations of gel percentages were used according to the size of protein to be determined. Following the separation of the protein content of each sample on the SDS-PAGE gel, proteins were transferred onto a PVDF membrane and blocked in 5% BSA in TBST or a 5% (w/v) non-fat milk at room temperature for one hour. After the blocking stage, the membranes were incubated with primary anti-body overnight at 4° C. In this study, the primary antibodies selected here were anti-Proliferating Cell Nuclear Antigen (PCNA), anti-caspase-3 (Cell Signaling Technology Inc.), anti-caspase-9 (Nous Biologicals), anti-PolyADP-ribose Polymerase (PARP), anti-Bcl-2, anti-Bax (Santa Cruz). Following the overnight incubation with primary antibodies, the membranes were extensively washed with TBST and re-probed with secondary antibodies including anti-rabbit IgG (Cell Signaling Technology, Inc, MA, USA) and anti-mouse IgG, and conjugated horseradish peroxidase for 1 hour at room temperature. Protein bands were then detected using a chemiluminescence solution known as WesternSure PREMIUM, the signal was detected and visualized using the Bio-Rad ChemiDoc XRS+ System. The intensity of the band was measured using the ImageJ software. The internal control used was total protein which was stained using the SYPRO Ruby protein gel stain following the protocol instructed by the manufacturer (Thermo Fisher Scientific).
Housekeeping proteins are used as the controls for every western blot analysis. Because of their stable expression in tissues, they are great indicators to validate the integrity of the protein samples loaded into the SDS-PAGE gel, therefore accurately reflecting the amount of proteins in the samples. Current research has investigated the ability of these housekeeping proteins to remain stable under different experimental conditions. […] Therefore, an alternative approach was used to resolve this issue. Total protein was utilized as the loading control; this protocol measures the whole protein content of a sample rather than relying on one protein.

DEN-induced HCC [4] = test: Macroscopic appearance of liver and number of lesions/nodules in DEN-induced HCC rats
Procedure: as §1, §2, §3

[5] = liver, compared to the HCC group alone, P<0.01 (FIG. 8)
[6] = liver, compared to the HCC group, P<0.05 (FIG. 9)

## CC(/C=C/C=C(\C)C(=O)O[C@@H]1O[C@H](CO[C@@H]2O[C@H](CO)[C@@H](O)[C@H](O)[C@H]2O)[C@@H](O)[C@H](O)[C@H]1O)=C\C=C\C=C(C)\C=C\C=C(/C)C(=O)O[C@@H]1O[C@H](CO[C@@H]2O[C@H](CO)[C@@H](O)[C@H](O)[C@H]2O)[C@@H](O)[C@H](O)[C@H]1O [crocin, Crocetin di-gentiobiose ester]
PCNA
  expression of PCNA: significantly lowered the expression of PCNA
Reticulin network
  reticulin network / fiber breakage: recovered the damage done by the DEN-induction of cancer
DEN-induced HCC [1]
  architecture of the liver (H&E histology): restored to a great degree the normal architecture of the liver
DEN-induced HCC [2]; in comparison to DEN-induced HCC rats (FIG. 11)
  levels of ALT and AST in the blood: great impact on lowering the levels of both ALT and AST
DEN-induced HCC [2]; in comparison to the HCC group, crocin 200 mg/kg b.wt., sorafenib 10 mg/kg b.wt., oral gavage 5 times a week, week 17 to 19, P<0.01
  level of ALT in serum: decrease in the level of ALT
DEN-induced HCC [2]; in comparison to the sorafenib alone group (HCC+sorafenib), P<0.05
  level of ALT in serum: significantly decreased levels of ALT
[3]; liver, compared to the HCC group alone, P<0.001 (FIG. 8)
  expression of PARP: decreased
[3]; [5]
  expression of pro-caspase-3: decreased
  expression of pro-caspase-9: decreased
[3]; [6]
  expression of anti-apoptotic protein Bcl-2: significantly (P<0.05) decreased
  expression of pro-apoptotic protein Bax: increasing the expression
[3]; western blot analysis (FIGS. 7, 8, 9)
  activation of the intrinsic apoptotic pathway: triggered the activation of the intrinsic apoptotic pathway
DEN-induced HCC [4]; in comparison to the HCC animals (FIG. 4)
  number of liver lesions: reduced the number of lesions
DEN-induced HCC [4]; in comparison to the livers of sorafenib alone (HCC+SB) (FIG. 4)
  number of liver lesions: significantly lower numbers of lesions

— patent publication US10933076B2, “Crocin-sorafenib combination therapy for liver cancer” (United Arab Emirates University, priority 2019, dated 2021)
